According to BindingDB's records for PubMed 1353247 (University of Nebraska, 1992):
“And” between values parts separate entries of the source, which are not always exact repeats. Identical values can stand only once.

Tests used:
[1] = molecular target: T1, Alpha-2C adrenergic receptor (Homo sapiens, UniProt P18825)
T1 sequence (P18825 whole entry): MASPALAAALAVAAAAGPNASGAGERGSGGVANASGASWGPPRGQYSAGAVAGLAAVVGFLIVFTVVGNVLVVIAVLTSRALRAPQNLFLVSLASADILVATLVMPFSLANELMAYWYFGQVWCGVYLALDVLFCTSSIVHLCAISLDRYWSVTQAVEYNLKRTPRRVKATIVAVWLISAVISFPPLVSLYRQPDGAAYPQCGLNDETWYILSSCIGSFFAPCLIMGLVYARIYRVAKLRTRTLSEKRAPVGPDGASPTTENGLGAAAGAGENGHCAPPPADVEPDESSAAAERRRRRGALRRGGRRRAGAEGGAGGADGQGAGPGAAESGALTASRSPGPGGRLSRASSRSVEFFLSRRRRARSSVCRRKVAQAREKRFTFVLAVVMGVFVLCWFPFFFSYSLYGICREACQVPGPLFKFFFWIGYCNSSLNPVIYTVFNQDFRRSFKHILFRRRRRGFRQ

[2] = molecular target: T2, Alpha-2B adrenergic receptor (Rattus norvegicus, UniProt P19328)
T2 sequence (P19328 whole entry): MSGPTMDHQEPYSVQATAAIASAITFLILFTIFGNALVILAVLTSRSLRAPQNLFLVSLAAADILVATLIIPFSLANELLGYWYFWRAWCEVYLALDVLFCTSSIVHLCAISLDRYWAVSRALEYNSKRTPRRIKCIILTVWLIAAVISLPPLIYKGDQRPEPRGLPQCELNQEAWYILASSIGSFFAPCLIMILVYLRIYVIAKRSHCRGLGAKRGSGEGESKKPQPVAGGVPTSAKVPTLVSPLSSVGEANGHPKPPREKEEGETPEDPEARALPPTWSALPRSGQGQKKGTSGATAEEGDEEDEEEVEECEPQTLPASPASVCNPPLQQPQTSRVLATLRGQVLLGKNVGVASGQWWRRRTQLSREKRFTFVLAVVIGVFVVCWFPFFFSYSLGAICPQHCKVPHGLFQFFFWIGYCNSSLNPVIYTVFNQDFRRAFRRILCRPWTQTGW

[3] = molecular target: Alpha-2C adrenergic receptor
[4] = molecular target: T3, Alpha-2A adrenergic receptor (Homo sapiens, UniProt P08913)
T3 sequence (P08913 whole entry): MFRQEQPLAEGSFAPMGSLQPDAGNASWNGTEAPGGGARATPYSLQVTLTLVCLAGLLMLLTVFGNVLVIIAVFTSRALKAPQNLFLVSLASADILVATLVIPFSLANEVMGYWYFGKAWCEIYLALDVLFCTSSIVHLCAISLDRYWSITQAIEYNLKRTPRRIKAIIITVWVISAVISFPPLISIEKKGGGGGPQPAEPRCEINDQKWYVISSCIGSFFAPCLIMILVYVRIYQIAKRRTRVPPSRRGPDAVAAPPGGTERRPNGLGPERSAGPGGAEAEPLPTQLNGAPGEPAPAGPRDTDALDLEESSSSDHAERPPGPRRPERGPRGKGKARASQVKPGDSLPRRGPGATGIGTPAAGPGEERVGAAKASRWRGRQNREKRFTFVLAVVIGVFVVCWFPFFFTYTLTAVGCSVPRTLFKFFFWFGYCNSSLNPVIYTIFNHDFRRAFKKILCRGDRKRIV

Row | SMILES | Ki [1] | Ki [2] | Ki [3] | Ki [4]
1 | O=C1NCN(c2ccccc2)C12CCN(CC1COc3ccccc3O1)CC2 (stereo not drawn) [8-(2,3-Dihydro-benzo[1,4]dioxin-2-ylmethyl)-1-phenyl-1,3,8-triaza-spiro[4.5]decan-4-one] | 0.13 nM | 0.29 nM | 0.26 nM | 5.5 nM and 8.3 nM
2 | COC(=O)C1=CO[C@@H](C)[C@@H]2CN3CCc4c([nH]c5ccccc45)[C@H]3C[C@H]12 [AKUAMMIGINE] | – | 159 nM | 20 nM | 71 nM and 104 nM
3 | COC(=O)C1=COC(C)C2CN3CCc4c([nH]c5ccccc45)C3CC12 (stereo not drawn) [Ajmalicine] | – | 31.2 nM | 1.71 nM | 6.4 nM
4 | CN1C[C@H](Cn2ccnc2-c2ccccc2)C[C@@H]2c3cccc4[nH]c(Br)c(c34)C[C@H]21 [BAM-1303] | 0.39 nM | 6.94 nM | – | 0.39 nM and 1.34 nM
5 | COc1ccccc1N1CCN(CCC2C(=O)c3ccccc3C(C)(C)C2=O)CC1 (stereo not drawn) [NSC_122211] | 3.82 nM | – | – | –
6 | COc1cccc(OC)c1OCCNCC1Oc2ccccc2OC1c1ccccc1 (stereo not drawn) [NSC_185453] | 0.4 nM | 7.89 nM | 0.75 nM | 0.91 nM and 1.27 nM
